System: Rodent neuron cell cultures treated with anti-NMDAR antibodies
Experiment: Example 3: NMDAR localization in neuron cultures treated with anti-NMDAR antibodies
Type: cell-based
Settings: Glycine 100-500 uM; histological measurements
Experimental: Rodent neuron cell cultures are treated with anti-NMDAR antibodies as described in Hughes E G et al., J Neurosci 2012 30(17):5866-75. […] The determination of receptors localization and other relevant measures is based on histological measurements.
Immunohistochemical methods will be applied to document (a) localization of NMDAR and NR1 and NR2 subunits; (b) loss of oligodendrocytes; (c) changes in astrocytes (S100beta) and microglia (cd11b), (d) expression of neurotrophic factors: brain derived neurotrophic factor (BDNF), nerve growth factor (NGF) and ciliary neurotrophic factor (CNTF); (e) markers of neurogenesis—doublecortin (17) and apoptosis—caspase3 (9). Quantification of histological measurements is based on images in several cortical subregions, striatum, […], hippocampus, and cerebellum.

NCC(=O)O [Glycine]
Effect on NMDAR intracellular localization: reversing receptor intracellular localization

Reference: patent US11213522B2, “Autoimmune-induced glutamatergic receptor dysfunction methods and treatments” (SARAH HERZOG MEMORIAL HOSPITAL EZRAT NASHIM ASSOCIATION, priority 2013, dated 2022)
